In patent US12070445B2, “System and assay for monitoring production/release of membrane-lytic toxins in bacteria and compounds for modulating same” (priority 2021, dated 2024):
Entries after “also recorded” stand apart in the source; their conditions may differ.

System: WT S. aureus (RN6390b)
Assay: Microtiter plate (96-well) vesicle lysis assay with WT S. aureus
Format: cell-based
Conditions: 100 nM 1, 10 μM 5, 20 μM 6, 10 μM AIP
Description: Compound handling and preparation. OdDHL and BHL (Hodgkinson et al., 2011), S. aureus AIP and peptide derivatives 1-5 (Tal-Gan et al., 2013, Tal-Gan et al., 2016, Vasquez and Blackwell, 2019), and compounds 7-9 (Welsh and Blackwell, 2016a, Boursier et al., 2018, Manson et al., 2020) were synthesized using previously described methods. PQS and compound 6 were purchased from Millipore Sigma and AK Scientific respectively. Compounds were stored dry at −20° C. until needed and then dissolved in DMSO. DMSO stock solutions were prepared at concentrations that varied with compound potency and apparent solubility. Final in-well compound concentrations for 96-well vesicle lysis assays, unless noted otherwise, were: 10 μM for AIP, OdDHL, and PQS; 1 mM for BHL; 100 nM for 1-4; 10 μM for 5; 20 μM for 6; 100 μM for 7 and 8; and 200 μM for 9.
Production of phospholipid vesicles with encapsulated calcein. Large unilamellar vesicles (LUVs) were produced by adapting a freeze-thaw and vesicle extrusion procedure (Mayer et al., 1986). Briefly, stock solutions of phospholipids (DOPC, DPPC, DPPE, or cholesterol) in chloroform were mixed to the desired lipid compositions (70 mol % DOPC/30 mol % cholesterol for S. aureus vesicles or 68 mol % DPPC, 30 mol % cholesterol, 2 mol % DPPE for P. aeruginosa vesicles), and the chloroform was removed using an N2 stream or rotary evaporation followed by drying for at least one hour under vacuum. Self-quenching solutions of calcein were prepared by combining calcein and PBS or a specially prepared calcein buffer (1 mM EDTA, 10 mM Trisbase, and 100 mM NaCl; pH 8) to a calcein concentration of […]. The resulting solutions were titrated with 10 M aqueous NaOH until all calcein was dissolved and the solution reached pH 7.4 or pH 8 for PBS and the calcein buffer, respectively. The resulting calcein solutions were added to the dried phospholipid films (PBS for S. aureus formulations and the calcein buffer for the P. aeruginosa formulations) for a final lipid concentration of 5 mg/mL. The resulting lipid solutions were vortexed vigorously and briefly sonicated in a bath sonicator to form a turbid vesicle suspension. The vesicle suspensions were then freeze-thawed five times by alternately immersing them into an iPrOH/dry ice bath and a warm water bath (˜60° C.). Vesicles prepared for continuous time-course experiments were passed at least 5 times through a 100 nm polycarbonate filter using a Mini-prep extruder. Vesicles prepared for the high-throughput screen were passed through the filter 3 times. The resulting vesicles were then separated from external, unloaded calcein using a hand-packed Sephadex-G50 size exclusion chromatography column. The concentration of phospholipid in the solution was quantified using ^31P NMR (per the above protocol), and the phospholipid concentration was adjusted to 2 mM for unsaturated lipid solutions and 1 mM for saturated lipid solutions in their respective buffers. The resulting vesicles were characterized by dynamic light scattering and found to have a hydrodynamic diameter of ˜150 nm (FIGS. 3A-3C), which agrees with previous reports describing vesicle production using a similar method (Lapinski et al., 2007).
Microtiter plate vesicle lysis assays. Portions of media (2 or 10 mL) were inoculated with individual bacterial colonies and allowed to shake overnight. From these overnight cultures, subcultures were prepared by diluting the cultures 1:50 (v/v) in fresh BHI for S. aureus or 1:100 (v/v) in fresh LB for P. aeruginosa. An aliquot of each subculture (178 μL) was added to 20 μL of vesicle suspension and 2 μL of compound solution (dissolved in DMSO at 100× working concentration) in a clear-bottomed, black 96-well microtiter plate (Corning 3904). For controls, DMSO (vehicle) or Triton X-100 (1% final concentration) was substituted for compound. […]

## CC(C)c1ccc(S(=O)(=O)c2nnn3c2nc(O)c2ccccc23)cc1 [Compound 6, savirin]
  effect on vesicle lysis (calcein fluorescence over 12 hr): wholly abrogated vesicle lysis; also recorded: repress vesicle lysis
